Test [1] deals with Normotensive Dutch Belted rabbits. Nature of the test: Intraocular pressure (IOP) measurements in rabbits. The class given is in vivo, rabbit. Conditions: for reduction of IOP: 25 μl, normal Dutch Belted rabbits; for ocular hypotensive response (significance): all doses (0.5, 0.1 and 0.01%); for ocular hypotensive response (significance) / contralateral effect on IOP (fellow eye): topical, Dutch Belted rabbits; for contralateral effect on IOP (fellow eye): all doses tested (0.5, 0.1 and 0.01%). The protocol: Intraocular Pressure (IOP) Measurements in Rabbits
Normotensive Dutch Belted rabbits (2.3 kg) of either sex were maintained on a 12-hour light/dark cycle during these experiments. Intraocular pressure (IOP) was measured using a calibrated pneumatonometer (Alcon Applanation Pneumatonograph), and results expressed in millimeters of mercury (mmHg). Before tonometry, one drop of 0.05% proparacaine was applied to the corneas to minimize any discomfort to the animal. Two base-line (control) readings were taken at (−0.5 and 0 hr.) after which Compounds I, Ia or II were administered topically (unilaterally applied into the conjunctival sac) in a 25 μl volume with the contralateral (fellow) eye receiving an equal volume of vehicle. A masked design was utilized, where the person involved in drug administration and measurement of IOP had no knowledge of the solutions' contents. Subsequently, IOP measurements were taken at 0.5, 1, 2, 3, 4, 5 and 6 hr after topical applications of drug. At the end of each day's measurements, stability of the tonometer was determined using the calibrator/verifier.

Test [2] has as its target T1, Maxi-K channel (alpha and beta1 subunits) (Homo sapiens, UniProt Q12791).
T1 construct: expressed in transfected cells
Nature of the test: FRET (VIPR) membrane potential assay in HEK-293 cells transfected with alpha and beta1 subunits of the maxi-K channel. The class given is cell-based. As to the method:
The identification of inhibitors of the Maxi-K channel is based on the ability of expressed Maxi-K channels to set cellular resting potential after transfection of both alpha and beta1 subunits of the channel in HEK-293 cells and after being incubated with potassium channel blockers that selectively eliminate the endogenous potassium conductances of HEK-293 cells. In the absence of Maxi-K channel inhibitors, the transfected HEK-293 cells display a hyperpolarized membrane potential, negative inside, close to EK (−80 mV) which is a consequence of the activity of Maxi-K channels. Blockade of the Maxi-K channel by incubation with Maxi-K channel blockers will cause cell depolarization. Changes in membrane potential can be determined with voltage-sensitive fluorescence resonance energy transfer (FRET) dye pairs that use two components, a donor coumarin (CC2DMPE) and an acceptor oxanol (DiSBAC2(3)).
Oxanol is a lipophilic anion and distributes across the membrane according to membrane potential. Under normal conditions, when the inside of the cell is negative with respect to the outside, oxanol is accumulated at the outer leaflet of the membrane and excitation of coumarin will cause FRET to occur. Conditions that lead to membrane depolarization will cause the oxanol to redistribute to the inside of the cell, and, as a consequence, a decrease in FRET. […]

In test [3] the target is T2, high-conductance calcium-activated potassium (Maxi-K) channels (Homo sapiens, UniProt Q12791).
T2 construct: expressed in transfected cells; host or cells: CHO cells (α alone) or HEK293 cells (α and β1)
The test is described as follows: Patch clamp recordings of Maxi-K channel currents in excised inside-out membrane patches. In kind it is cell-based. The note with it: 1 nM concentration applied to internal side of excised inside-out patch; held at -80 mV, steps to +50 mV. From the text: Electrophysiological Assays of Compound Effects on High-conductance Calcium-activated Potassium Channels
Patch clamp recordings of currents flowing through high-conductance calcium-activated potassium (Maxi-K) channels were made from membrane patches excised from CHO cells constitutively expressing the α-subunit of the Maxi-K channel or HEK293 cells constitutively expressing both α- and β1-subunits using conventional techniques (Hamill et al., 1981, Pflügers Archiv. 391, 85-100) at room temperature. Glass capillary tubing (Garner #7052) was pulled in two stages to yield micropipettes with tip diameters of approximately 1-2 microns. Pipettes were typically filled with solutions containing (mM): 150 KCl, 10 Hepes (4-(2-hydroxyethyl)-1-piperazine […]), 1 Mg, 0.01 Ca, and adjusted to pH 7.20 with 3.7 mM KOH. After forming a high resistance (>10^9 ohms) seal between the plasma membrane and the pipette, the pipette was withdrawn from the cell, forming an excised inside-out membrane patch. […]
The effects of the compounds of the present invention on Maxi-K channels were examined in excised inside-out membrane patches. […] The fraction of channels blocked in each experiment was calculated from the reduction in peak current caused by application of the specified compound to the internal side of the membrane patch. […]

Where [4] appears, read: 0.01% unilateral topical application.
Setting [5] is: 0.1% unilateral topical application.
[6] abbreviates: 0.5% unilateral topical application.

T1 sequence (Q12791 whole entry): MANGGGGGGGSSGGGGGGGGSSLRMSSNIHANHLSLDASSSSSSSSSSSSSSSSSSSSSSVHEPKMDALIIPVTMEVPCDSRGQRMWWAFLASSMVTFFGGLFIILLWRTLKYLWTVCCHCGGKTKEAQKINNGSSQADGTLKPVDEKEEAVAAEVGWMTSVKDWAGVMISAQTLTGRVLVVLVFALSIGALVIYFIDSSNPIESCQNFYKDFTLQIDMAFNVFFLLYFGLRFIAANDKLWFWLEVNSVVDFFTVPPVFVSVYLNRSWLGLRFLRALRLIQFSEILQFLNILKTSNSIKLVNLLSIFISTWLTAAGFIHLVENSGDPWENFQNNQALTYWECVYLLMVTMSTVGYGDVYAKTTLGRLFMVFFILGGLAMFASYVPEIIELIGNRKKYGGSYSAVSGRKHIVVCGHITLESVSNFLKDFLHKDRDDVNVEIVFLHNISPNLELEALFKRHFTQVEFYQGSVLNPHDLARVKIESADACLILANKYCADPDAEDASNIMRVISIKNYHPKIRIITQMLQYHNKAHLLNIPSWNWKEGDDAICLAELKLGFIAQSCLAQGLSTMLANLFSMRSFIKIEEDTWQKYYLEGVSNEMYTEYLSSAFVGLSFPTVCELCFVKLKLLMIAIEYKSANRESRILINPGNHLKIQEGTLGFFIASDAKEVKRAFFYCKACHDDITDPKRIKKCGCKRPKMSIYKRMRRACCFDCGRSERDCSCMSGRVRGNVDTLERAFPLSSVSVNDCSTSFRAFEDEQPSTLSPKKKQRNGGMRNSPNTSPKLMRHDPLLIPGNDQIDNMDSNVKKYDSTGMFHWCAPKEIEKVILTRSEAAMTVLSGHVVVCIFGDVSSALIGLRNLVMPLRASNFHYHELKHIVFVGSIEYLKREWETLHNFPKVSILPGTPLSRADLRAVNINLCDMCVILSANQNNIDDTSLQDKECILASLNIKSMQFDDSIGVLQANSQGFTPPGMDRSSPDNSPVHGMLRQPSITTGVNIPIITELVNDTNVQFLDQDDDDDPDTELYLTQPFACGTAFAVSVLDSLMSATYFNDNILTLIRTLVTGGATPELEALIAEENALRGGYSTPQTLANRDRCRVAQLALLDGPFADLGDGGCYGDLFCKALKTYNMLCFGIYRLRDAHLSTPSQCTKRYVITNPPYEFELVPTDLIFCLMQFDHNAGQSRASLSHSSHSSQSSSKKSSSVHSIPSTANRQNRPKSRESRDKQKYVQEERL
T1 sequence (Q16558 whole entry partner): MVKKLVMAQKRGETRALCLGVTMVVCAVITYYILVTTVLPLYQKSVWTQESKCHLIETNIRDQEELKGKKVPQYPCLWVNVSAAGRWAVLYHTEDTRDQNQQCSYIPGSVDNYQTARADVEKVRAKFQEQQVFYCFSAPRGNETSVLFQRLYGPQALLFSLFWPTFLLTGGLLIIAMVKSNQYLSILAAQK
T2 sequence (Q12791 whole entry): as the sequence (Q12791 whole entry) above

Take `CC(C)[C@@H](C(=O)O[C@H]1C[C@H]2Cc3c([nH]c4ccccc34)[C@]2(C)[C@@]2(C)CC[C@@]34O[C@@H](C(=O)C=C3[C@]12O)C(C)(C)O4)N(C)C` [Ib]: the “reduction of IOP” value in test [1] (setting [4]) was determined as 3 mmHg; in test [1] (setting [5]), 3.3 mmHg; in test [1] (setting [6]), 3.7 mmHg. Further, the “ocular hypotensive response (significance)” value in test [1] is recorded as “significant”. Further, in test [1], the “contralateral effect on IOP (fellow eye)” value was “significant contralateral effect”. In test [2], this compound came in with an IC50 of at most 100 nM.
With `CC(C)C[C@@H](C(=O)O[C@H]1C[C@H]2Cc3c([nH]c4ccccc34)[C@]2(C)[C@@]2(C)CC[C@@]34O[C@@H](C(=O)C=C3[C@]12O)C(C)(C)O4)N(C)C` [Compound Ia], the figures for the “reduction of IOP” value in test [1] (setting [4]), in test [1] (setting [5]) and in test [1] (setting [6]) were 3 mmHg, 3.3 mmHg and 3.7 mmHg, respectively. In addition, in test [1], the “ocular hypotensive response (significance)” value is “significant”. Moreover, the “contralateral effect on IOP (fellow eye)” value in test [1] is listed as “significant contralateral effect”. For the same compound, the IC50 in test [2] is at most 100 nM. Further, the “decrease in Maxi-K channel currents” value in test [3] stood at 88%.
